Reference: ChEMBL document CHEMBL1201862, “PubChem BioAssay data set” (2004)
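All cell lines were grown in 96-well plates and treated with compound for 48 hours. GI50 is the concentration that inhibits growth by half.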 Active and inactive are the calls of the source. Rule as the data show it: active = GI50 up to about 1.1 µM and inactive = higher.

Tests used:
Assay in all cases: DTP human tumour cell line panel, 48 h
[1] = test system: SF-295
[2] = test system: CAKI-1
[3] = test system: HT-29
[4] = test system: NCI-H226
[5] = test system: SR
[6] = test system: SNB-19
[7] = test system: NCI-H23
[8] = test system: SNB-75
[9] = test system: MOLT-4
[10] = test system: RXF 393
[11] = test system: OVCAR-3
[12] = test system: HCC 2998
[13] = test system: SF-539
[14] = test system: OVCAR-5
[15] = test system: HCT-15
[16] = test system: T47D
[17] = test system: UO-31
[18] = test system: U-251
[19] = test system: HOP-62
[20] = test system: NCI-H522
[21] = test system: ACHN
[22] = test system: Malme-3M
[23] = test system: UACC-257
[24] = test system: EKVX
[25] = test system: SK-MEL-2
[26] = test system: SK-OV-3
[27] = test system: CCRF-CEM
[28] = test system: SK-MEL-28
[29] = test system: OVCAR-8
[30] = test system: OVCAR-4
[31] = test system: LOX IMVI
[32] = test system: SK-MEL-5
[33] = test system: MDA-MB-435
[34] = test system: HCT-116
[35] = test system: KM12
[36] = test system: SN12C
[37] = test system: MDA-MB-231
[38] = test system: MCF7
[39] = test system: 786-0
[40] = test system: RPMI-8226
[41] = test system: M14
[42] = test system: HL-60
[43] = test system: NCI/ADR-RES
[44] = test system: PC-3
[45] = test system: A549
[46] = test system: SW-620
[47] = test system: Hs-578T
[48] = test system: SF-268
[49] = test system: UACC-62
[50] = test system: HOP-92
[51] = test system: IGROV-1
[52] = test system: TK-10
[53] = test system: K562
[54] = test system: COLO 205
[55] = test system: NCI-H460
[56] = test system: DU-145

Measured: GI50

Cc1ccccc1Nc1nc2ccccc2nc1NS(=O)(=O)c1ccccc1
> 100 µM: [15]
inactive: [1] 67.1 µM | [2] > 100 µM | [3] > 100 µM | [4] > 100 µM | [5] > 100 µM | [6] 96.8 µM | [7] 43.1 µM | [8] 56.2 µM | [9] > 100 µM | [10] > 100 µM | [11] > 100 µM | [12] > 100 µM | [13] 59.7 µM | [14] > 100 µM | [16] > 100 µM | [17] > 100 µM | [18] 67.9 µM | [19] 68.1 µM | [20] > 100 µM | [21] > 100 µM | [22] > 100 µM | [23] > 100 µM | [24] > 100 µM | [25] > 100 µM | [26] > 100 µM | [27] > 100 µM | [28] > 100 µM | [29] > 100 µM | [30] 38.5 µM | [31] > 100 µM | [32] > 100 µM | [33] > 100 µM | [34] > 100 µM | [35] > 100 µM | [36] > 100 µM | [37] > 100 µM | [38] > 100 µM | [39] > 100 µM | [40] > 100 µM | [41] > 100 µM | [42] > 100 µM | [43] > 100 µM | [44] > 100 µM | [45] > 100 µM | [46] > 100 µM | [47] > 100 µM | [48] > 100 µM | [49] 62.2 µM | [50] 47.5 µM | [51] > 100 µM | [52] > 100 µM | [53] > 100 µM | [54] > 100 µM | [55] > 100 µM

CCn1ncc(N=O)c1N
inactive: [1] > 100 µM | [2] > 100 µM | [3] > 100 µM | [5] > 100 µM | [9] > 100 µM | [11] > 100 µM | [12] 56.2 µM | [14] > 100 µM | [16] > 100 µM | [17] > 100 µM | [19] > 100 µM | [21] > 100 µM | [23] > 100 µM | [24] > 100 µM | [28] > 100 µM | [56] > 100 µM | [29] > 100 µM | [31] > 100 µM | [32] > 100 µM | [33] > 100 µM | [36] > 100 µM | [38] > 100 µM | [39] > 100 µM | [43] > 100 µM | [44] > 100 µM | [46] > 100 µM | [49] > 100 µM | [52] > 100 µM | [55] > 100 µM
> 100 µM: [15]

CC1=C2C(=O)c3ccccc3C2=C(C)S(=O)(=O)O1
inactive: [2] > 10 µM | [5] > 10 µM | [7] > 10 µM | [8] > 10 µM | [9] > 10 µM | [10] > 10 µM | [14] > 10 µM | [16] > 10 µM | [18] > 10 µM | [19] > 10 µM | [21] > 10 µM | [22] > 10 µM | [25] > 10 µM | [26] > 10 µM | [27] > 10 µM | [28] > 10 µM | [30] > 10 µM | [32] > 10 µM | [33] > 10 µM | [38] > 10 µM | [39] > 10 µM | [40] > 10 µM | [41] > 10 µM | [42] > 10 µM | [43] > 10 µM | [45] > 10 µM | [46] > 10 µM | [48] > 10 µM | [49] > 10 µM | [51] > 10 µM | [53] > 10 µM | [54] > 10 µM | [55] > 10 µM
